This is an account of results in patent US12029762B2, “Alkalized organic pharmaceutical or nutraceutical composition” (priority 2009, dated 2024).

The test can be described thus: Strength, stamina and endurance of a training test subject. Format: in vivo, human. The protocol: Test subject was administered L-Glutamine HCl (pH 6.0) for 30 days.
Training was three days per week, with 3 days of cardio. Dosage was 500 mg per day the first week and 1000 mg per day for week 2-4.
Test subject was taken off the glutamine HCl (pH 6.0) and administered buffered-Glutamine (pH 12.0) for 30 days. Training was three days per week, with 3 days of cardio. Dosage was 500 mg per day for the 5th week and 1000 mg per day for weeks 6-8.

For `Cl.NC(=O)CC[C@H](N)C(=O)O` [L-Glutamine HCl], the “changes to strength, stamina or endurance (in words)” value reads like this: (Week 1, 500 mg per day) “No noticeable changes”; (Week 2-4, 1000 mg per day) “No noticeable changes”.
